Assay results reported in US5185319A, “Stabilization of organic compounds” (National Research Development Corporation, priority 1989, dated 1993).

What was measured:
[1] = biological target: porcine insulin (Sus scrofa, UniProt P01315); experiment: Stability of insulin in solution with chelating agent, reverse phase HPLC; format: physicochemical; settings: pH 7.0 solution; for effect on stability of insulin (amount of insulin present as percentage of the original amount): 100 μM chelating agent, 4, 8 and 12 weeks
Protocol: A solution was prepared corresponding to that described in Example 1 containing porcine insulin and being pyrogen-free but not sterile. For comparative purposes a further solution was prepared in which the hydroxypyridone was replaced by the alternative chelating agent 3-hydroxy-2-methyl-4-pyrone.
The solutions were incubated at either 4° C. or 37° C. and the stability of the insulin was studied over a period of 12 weeks through use of the reverse phase HPLC method described by Seipke et al, Angew. Chem. Int. Ed. Engl., 1986, 25, 535-552 and by Grau, Diabetologia, 1985, 28, 458-463. The amount of insulin present in the solution at 4, 8 and 12 weeks was then calculated as a percentage of the original amount present.

[2] = test system: insulin; experiment: Investigation of chelating agents for stabilization of insulin; format: physicochemical

porcine insulin, sequence (P01315 25-54 limits assumed): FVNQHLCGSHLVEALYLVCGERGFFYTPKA
porcine insulin, sequence (P01315 88-108 limits assumed): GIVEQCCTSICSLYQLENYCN

degradation of insulin over the whole period of 12 weeks ([1]; incubated at 4° C., 100 μM chelating agent)	effect on stability of insulin (amount of insulin present as percentage of the original amount) ([1]; incubated at 4° C.)	effect on stability of insulin (amount of insulin present as percentage of the original amount) ([1]; incubated at 37° C.)	stabilizing effect on insulin [2]	Structure (SMILES)
no degradation was observed	stabilises insulin	stabilises insulin, to some extent	–	COCCn1ccc(=O)c(O)c1C [3-hydroxy-1-(2'-methoxyethyl)-2-methylpyrid-4-one]
–	destabilises insulin	destabilises insulin	no stabilizing effect	Cc1occc(=O)c1O [3-hydroxy-2-methyl-4-pyrone]
–	–	–	no stabilizing effect	O=C(O)CN(CCN(CC(=O)O)CC(=O)O)CC(=O)O [ethylene diamine tetra-acetic acid]
